The results in this text go back to patent US20240299393A1, “SMALL MOLECULE DISRUPTORS OF PROTEIN INTERACTIONS IN HISTONE DEACETYLASE COMPLEXES” (Dana-Farber Cancer Institute, Inc., priority 2021, published 2024).

Entries after “also recorded” stand apart in the source; their conditions may differ.

One assay concerns the target T1, human SIN3A PAH2 domain (Homo sapiens, UniProt Q96ST3).
T1 construct: Residues 301-390 of human SIN3A (PAH2 domain) were inserted into the pMALC2XE vector for NMR experiments; made in house; host or cells: E. coli BL21 (DE3)
Briefly: Ligand-detected NMR, human SIN3A PAH2. Format: binding, H. sapiens. As to conditions: 300 μM compound, 10 μM protein. The protocol:
(§1) Ligand-detected NMR experiments: all results were acquired using a 3 mm tube at 25° C. on a Bruker 600 MHz Avance II system equipped with a CPPTCI cryoprobe (Bruker BioSpin Corp.). In all experiments, the concentration of E6R was fixed at 300 μM (from a stock of 25 mM in deuterated DMSO) and the concentration of the protein at 10 μM. The volume of deuterated DMSO was kept constant (1.5%) in all tested samples. Right before the experiments, the compound and protein were diluted in 1×PBS containing 0.1% deuterated dithiothreitol (DTT) to a total volume of 200 μL. Samples were diluted by 5% with D2O for magnetic field lock. Spectra were acquired for ligand only, protein only, and ligand+protein. […] STD experiments [Mayer et al 2001] were acquired with 160 scans, with protein irradiation applied for 3 s at 0 ppm and −20 ppm for the on and off resonance experiments, respectively. On and off resonance spectra were collected and stored separately. One-dimensional CPMG-R2 edited experiments [Hajduk et al 1997] were collected for samples with and without proteins using seven CPMG delays (0, 25, 50, 100, 300, 500, and 800 ms) with four scans per delay. Proton spectra used to measure DLB and chemical shift perturbations in the absence and presence of the proteins were recorded with 16 scans using a recycle delay of 3 s. […]

The target in assay [1] is T2, SIN3A occupancy at the Homer1 promoter (Mus musculus, UniProt Q60520).
T2 construct: from tissue; host or cells: mouse frontal cortex (C57BL/6N, treated in vivo)
Briefly: ChIP-qPCR of SIN3A at Homer1 in mouse frontal cortex. Format: in vivo. The protocol: ChIP assays were performed using the MAGnify ChIP system (ThermoFisher, MA) according to the manufacturer's protocol with a few modifications. A small section (50 mg) of the frontal cortex (FC) was used. Chromatin was sheared with the Covaris® S2 system (Covaris, Woburn, MA) using the following program: duty cycle 5%, intensity 2, 200 cycles per burst, 60 s cycle per time, 20 cycles, temperature 4° C. A volume of 10 μL chromatin was used per sample. A total of 0.5 μg of the anti-H3 antibody (PA5 16183, Invitrogen, Carlsbad, CA), 1 μg of the anti-SIN3A antibody (ab3479, Abcam, Cambridge, MA) or anti-IgG (ab37355, Abcam) was used per sample. Quantitative real-time PCR analysis was performed following magnetic bead-based DNA purification. The DNA samples were amplified in quadruplicate reactions as previously described [Ibi et al 2017] using the QuantStudio 6 Flex Real-Time PCR System (Applied Biosystems) using the PowerUP SYBR Green Master Mix (Applied Biosystems). All primers for ChIP-qPCR are described in FIG. 34.

For assay [2], the system named is PAH1 and PAH3 domains of human SIN3A and SIN3B. Kind of assay: Ligand-detected NMR, human SIN3A and SIN3B PAH1 and PAH3. Format: binding, H. sapiens. As to conditions: FIG. 28. As for the experimental part: as §1
The target in assay [3] is T3, PAH2 domain of mouse M. musculus SIN3B (Mus musculus, UniProt Q62141, C241A).
T3 construct: M. musculus SIN3B PAH2 C241A (residues 148-252) expressing plasmid; GST (cleaved yes); made in house; host or cells: E. coli BL21 (DE3), minimal medium with 15N-ammonium chloride and 13C-glucose
Kind of assay: Ligand-detected NMR, mouse SIN3B PAH2. The assay is classed as binding. As for the experimental part:
Expression of mouse ^13C/^15N SIN3B PAH2: the same M. musculus SIN3B PAH2 C241A (residues 148-252) expressing plasmid as reported by [Kumar et al 2011] was used here. The construct was overexpressed in E. coli BL21 (DE3) in 1 L of minimum medium supplemented with 1 g 15N-ammonium chloride (Cambridge Isotope Laboratories) and 2 g 13C-glucose (Cambridge Isotope Laboratories). Cells were grown at 37° C. to an OD of 0.8, cooled to 17° C., induced with 500 μM isopropyl-1-thio-D-galactopyranoside, incubated overnight at 17° C., collected by centrifugation, and stored at −80° C. 13C/15N-double labeled protein was purified as for other GST-fused constructs. The GST tag was cleaved as described above.
Ligand-detected NMR experiments: all results were acquired using a 3 mm tube at 25° C. on a Bruker 600 MHz Avance II system equipped with a CPPTCI cryoprobe (Bruker BioSpin Corp.). In all experiments, the concentration of E6R was fixed at 300 μM (from a stock of 25 mM in deuterated DMSO) and the concentration of the protein at 10 μM. The volume of deuterated DMSO was kept constant (1.5%) in all tested samples. […] Proton spectra used to measure DLB and chemical shift perturbations in the absence and presence of the proteins were recorded with 16 scans using a recycle delay of 3 s. […]

Assay [4] relates to HDAC-regulated genes in spleen and frontal cortex. Briefly: Pilot RT-qPCR in spleen and frontal cortex of treated mice. Format: in vivo, mouse. The following applies: 5, 15 or 50 mg/kg, chronic. The protocol:
For the pilot RT-qPCR experiment, in addition to the vehicle condition (ethanol 100%/kolliphor/saline 0.9% in a proportion of 1:1:14.4; for the 50 mg/kg dose, 14 μL NaOH 1M were also added), three doses (mg/kg) of E6R were tested: 5, 15, and 50, with 4 (vehicle) or 3 (E6R) animals per group. A dose of 50 mg/kg was picked to conduct further experiments. For the RNA-Seq experiment, E6R was dissolved in a vehicle solution containing saline 55% v/v, DMSO 34% v/v, ethanol 5% v/v, kolliphor EL (Sigma-Aldrich, MO, USA) 5% v/v, NaOH 1M 1% v/v. The vehicle group received the same solution. Animals were injected daily by intraperitoneal (I.P.) injection with 5 μL/g of the solution (50 mg/kg of the drug or vehicle) at 11 am for 10 days. Animal wellness was verified by daily visual inspection and weighing. […] On the 11th day, animals were sacrificed by bleeding via heart puncture under carbon dioxide anesthesia. The brains were quickly removed and the bilateral frontal cortex (bregma 1.90 to 1.40 mm) was dissected followed by total RNA extraction. The spleens were also collected in the pilot RT-qPCR experiments.
Qiagen™ RNeasy mini kits (Valencia, CA) were used following the manufacturer's protocol. […] Purity of the RNA preparation was determined as the 260/280 nm ratio with expected values between 2 and 2.3. […]

The subject of assay [5] is cycloheximide (CYH) sensitivity. Briefly: Yeast cycloheximide sensitivity at 37° C. The assay is classed as cell-based, S. cerevisiae. As for the experimental part:
For assessment of cycloheximide (CYH) sensitivity at 37° C., yeast cells with the cyh2^R genotype (FIG. 29) were first transformed with an empty pDEST-AD-TRP1-CYH2 plasmid (FIG. 30) before running the different experiments. Selection of the plasmid was maintained by culturing cells in SC-W medium.

T2 sequence (Q60520 whole entry): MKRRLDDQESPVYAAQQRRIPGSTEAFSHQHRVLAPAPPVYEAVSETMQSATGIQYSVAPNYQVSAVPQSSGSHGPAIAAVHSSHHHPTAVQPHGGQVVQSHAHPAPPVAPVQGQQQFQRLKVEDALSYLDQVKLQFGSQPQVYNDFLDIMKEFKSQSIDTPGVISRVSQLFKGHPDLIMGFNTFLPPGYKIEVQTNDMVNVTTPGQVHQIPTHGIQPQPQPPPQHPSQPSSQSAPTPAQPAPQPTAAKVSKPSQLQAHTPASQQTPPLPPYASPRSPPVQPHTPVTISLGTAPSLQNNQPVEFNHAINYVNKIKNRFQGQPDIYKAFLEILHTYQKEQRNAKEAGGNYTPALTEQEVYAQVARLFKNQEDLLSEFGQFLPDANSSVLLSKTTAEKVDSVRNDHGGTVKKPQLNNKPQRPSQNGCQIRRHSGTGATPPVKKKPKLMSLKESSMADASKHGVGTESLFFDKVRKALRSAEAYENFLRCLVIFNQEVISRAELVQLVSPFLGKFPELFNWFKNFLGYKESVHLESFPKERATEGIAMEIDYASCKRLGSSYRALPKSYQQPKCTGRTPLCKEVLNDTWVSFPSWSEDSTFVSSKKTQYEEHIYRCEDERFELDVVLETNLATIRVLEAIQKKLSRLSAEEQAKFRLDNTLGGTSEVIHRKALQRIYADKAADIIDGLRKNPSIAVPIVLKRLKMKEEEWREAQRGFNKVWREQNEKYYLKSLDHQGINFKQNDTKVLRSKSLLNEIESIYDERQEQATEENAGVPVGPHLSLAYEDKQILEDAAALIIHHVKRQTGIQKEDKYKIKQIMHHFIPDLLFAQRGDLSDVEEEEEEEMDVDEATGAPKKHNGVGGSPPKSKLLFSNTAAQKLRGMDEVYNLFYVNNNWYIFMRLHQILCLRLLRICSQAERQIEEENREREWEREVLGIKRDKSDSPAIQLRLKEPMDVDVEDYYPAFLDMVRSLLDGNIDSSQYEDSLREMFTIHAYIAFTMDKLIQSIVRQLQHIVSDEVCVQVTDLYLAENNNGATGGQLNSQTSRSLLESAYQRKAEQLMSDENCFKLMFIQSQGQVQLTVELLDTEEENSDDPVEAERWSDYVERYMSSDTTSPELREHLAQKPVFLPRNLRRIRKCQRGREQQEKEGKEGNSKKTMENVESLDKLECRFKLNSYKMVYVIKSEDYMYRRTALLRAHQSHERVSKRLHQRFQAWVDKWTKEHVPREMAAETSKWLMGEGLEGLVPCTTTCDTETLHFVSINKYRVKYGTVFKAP
T1 sequence (Q96ST3 301-390): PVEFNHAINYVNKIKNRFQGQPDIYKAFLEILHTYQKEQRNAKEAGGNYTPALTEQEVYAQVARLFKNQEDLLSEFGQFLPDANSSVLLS
T3 sequence (Q62141 148-252 C241A): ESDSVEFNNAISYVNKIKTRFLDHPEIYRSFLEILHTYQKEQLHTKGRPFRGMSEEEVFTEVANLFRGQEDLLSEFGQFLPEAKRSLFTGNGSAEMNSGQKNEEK

As to `C[C@@H](NC(=O)c1c(O)n2ccccc2nc1=O)c1ccccc1` [E6R, 4-hydroxy-2-oxo-N—((R)-1-phenylethyl)-3,4-dihydro-2H-pyrido[, 2-a]pyrimidine-3-carboxamide], the “binding to human SIN3A PAH2 by NMR” value on human SIN3A PAH2 domain is recorded as “could bind; also recorded: virtually identical to those of yeast Sin3 PAH2”. In addition, the “recruitment of SIN3A at Homer1 promoter” value in assay [1] (HDAC2 cKO mice) is “not observed”; in assay [1] (WT mice, chronic 50 mg/kg, vs vehicle), “significantly reduced recruitment; also recorded: significantly reduces”. Besides, in assay [2], the “binding to other PAH domains of human SIN3A and SIN3B by NMR” value was “can bind”. The “binding to mouse SIN3B PAH2 by NMR” value in assay [3] was “virtually identical to those of yeast Sin3 PAH2”. The “expression levels of tested genes in spleen and frontal cortex” value in assay [4] was “able to change expression levels”.

Regarding `CC(/C=C/C(=O)NO)=C\[C@@H](C)C(=O)c1ccc(N(C)C)cc1` [TSA, trichostatin A], the CYH sensitivity entry in assay [5] is recorded as “induced”.
